Patent US8030453B2, “Methods of making an antibody that binds a chemerin polypeptide” (Euroscreen S.A., priority 2001, dated 2011)
Where two headings read alike, the source gives them in different places.

Legend:
[1] = test system: human chemerinR in CHO-K1 cells; experiment: intracellular cascade assays (calcium release, cAMP accumulation, p42/p44 MAP kinase phosphorylation) in CHO/chemerinR cells; type: cell-based
[2] = test system: human monocyte-derived dendritic cells and macrophages; experiment: chemotaxis (48-well microchemotaxis chamber) of primary cells; type: cell-based
Method: (§1) Monocyte-derived DCs were generated by GM-CSF (50 ng/ml) and IL-13 (20 ng/ml) stimulation as previously described (17). Maturation of DCs was achieved following stimulation with 100 ng/ml LPS. Macrophages were obtained by incubating monocytes in Petriperm dishes (Haereus) for 6 days in RPMI supplemented with 10% FCS and 10 ng/ml MCSF. Cell migration was evaluated using a 48-well microchemotaxis chamber technique as described (18). For Ca2+ mobilization assays, monocyte-derived DCs or macrophages (10^7 cells/ml in HBSS without phenol red but containing 0.1% BSA) were loaded with 5 μM FURA-2 (Molecular Probes) for 30 min at 37° C. in the dark. The loaded cells were washed twice, resuspended at 10^6 cells/ml, kept for 30 min at 4° C. in the dark with or without the blocking 4C7 monoclonal antibody (10 μg/ml), and transferred into the quartz cuvette of a luminescence spectrometer LS50B (PerkinElmer).

[3] = test system: C5a and C3a receptors, CRTH2, GPR1, other characterized and orphan receptors, most chemokine receptors; experiment: reactivity of related and other receptors to Chemerin; type: cell-based; conditions: purified human Chemerin
[4] = test system: wild-type CHO-K1 cells; experiment: signalling assays on wild-type CHO-K1 cells; type: cell-based, hamster
[5] = test system: monocyte-derived immature dendritic cells and macrophages; experiment: Ca2+ mobilization (FURA-2) in primary cells; type: cell-based, human; conditions: similar for macrophages, Chemerin 30 nM
Method: as §1

[6] = target: T1, human ChemerinR (ChemR23) expressed in CHO-K1 cells (Homo sapiens, UniProt Q99788); experiment: aequorin-based intracellular Ca2+ release assay; type: cell-based
T1 construct: This fragment was subcloned into the pcDNA3 (Invitrogen) vector; expressed in transfected cells; host or cells: CHO-K1 (co-expressing mitochondrial apoaequorin and Galpha16)
T1 sequence (Q99788 3-373): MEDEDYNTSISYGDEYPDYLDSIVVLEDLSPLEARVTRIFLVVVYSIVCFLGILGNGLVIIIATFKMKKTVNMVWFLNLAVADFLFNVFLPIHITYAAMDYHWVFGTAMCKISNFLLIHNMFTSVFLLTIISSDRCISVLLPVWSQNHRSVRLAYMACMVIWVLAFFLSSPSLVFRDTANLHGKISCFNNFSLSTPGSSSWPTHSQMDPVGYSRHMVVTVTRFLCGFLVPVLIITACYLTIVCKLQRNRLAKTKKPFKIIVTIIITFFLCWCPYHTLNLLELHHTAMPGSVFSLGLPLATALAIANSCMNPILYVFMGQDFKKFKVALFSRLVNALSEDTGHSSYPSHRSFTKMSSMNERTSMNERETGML
Method: Briefly, ChemerinR-expressing clones are transfected to coexpress mitochondrial apoaequorin and Gα16. Cells are incubated with 5 μM Coelenterazine H (Molecular Probes) for 4 hours at room temperature, washed in DMEM-F12 culture medium and resuspended at a concentration of 0.5×10^6 cells/ml. Cells are then mixed with test agonist peptides and light emission by the aequorin is recorded with a luminometer for 30 sec. Results are expressed as Relative Light Units (RLU). Controls include assays using membranes isolated from cells not expressing ChemerinR (mock-transfected), in order to exclude possible non-specific effects of the candidate compound.
ChemerinR-expres sing clones have been obtained by transfection of CHO-K1 cells to coexpressing mitochondrial apoaequorin and Gα16, limiting dilution and selection by northern blotting. Positive clones were used for screening with human ovarian cancer ascites extracts prepared as described above. […] Briefly, cells were collected from plates in PBS containing 5 mM EDTA, pelleted and resuspended at 5×10^6 cells/ml in DMEM-F12 medium. Cells were incubated with 5 μM Coelenterazine H (Molecular Probes) for 4 hours at room temperature. Cells were then washed in DMEM-F12 medium and resuspended at a concentration of 0.5×10^6 cells/ml. Cells were then mixed with test agonist peptides or plates containing tissue extracts and the light emission was recorded for 30 sec using a Microlumat luminometer (Perkin Elmer). Results are expressed as Relative Light Units (RLU).

[7] = 100 nM; culture medium or conditioned media of CHO-K1, Cos-7 or HEK293 cells
Method: In order to investigate whether proteolytic activation of prochemerin is performed intracellularly in the secretory pathway, or is an extracellular process, potentially regulated by the activation of extracellular proteases, we tested the activation of human purified prochemerin in the medium of cultured cells and conditioned media.

[8] = test system: B16F0 melanoma cell line; experiment: in vitro proliferation of transfected B16F0 cells (BrdU, cell cycle, cell counting); type: cell-based, mouse; conditions: expression of Chemerin in B16F0 cells
Method: (§2) B16-F0 melanoma cells (ATCC) were transfected with the pEFIN3-mouse chemerin plasmid using FuGene6, and selected with 800 μg/ml G418. Clones were characterized by assaying the conditioned medium on chemerinRexpres sing cells. In vitro proliferation rate was determined by BrdU incorporation as described30. For in vivo studies, cells were washed twice with PBS, and grafted (6×10^5 cells in 0.1 ml PBS) subcutaneously into the back of 10-week-old C57B16 mice (5 to 11 mice per group, Harlan, The Netherlands). Perpendicular tumor diameters (D and d) were measured every 2 days, and the volume was estimated as V=π(d/2)(D/2)(d/2). Statistical analysis was performed by using the unpaired non parametric Mann-Whitney test. For microscopic analysis, tumors were embedded in OCT, snap-frozen in −80° C. isopentane and cut at 12 μm. Sections were stained with hematoxylin-eosin (HE) for routine analysis. All animal procedures were approved by the ethical committee of the Medical School of the Universite Libre de Bruxelles.

[9] = test system: B16-F0 melanoma cells; experiment: B16-F0 melanoma model, subcutaneous graft in C57Bl6 mice; type: in vivo, mouse
Method: as §2

Molecule: Pertussis toxin [reference compound]
- effect on Chemerin signalling effects ([1]; pretreatment): inhibited
- effect on Chemerin-induced migration ([2]; macrophages and dendritic cells, Pertussis toxin 3 μg/ml, 4C7 10 μg/ml): completely abolished

Molecule: recombinant Chemerin: human recombinant Chemerin expressed in CHO-K1 cells, C-terminally truncated after serine 157 (137 amino acids)
- concentrations causing intracellular calcium release, inhibition of cAMP accumulation, phosphorylation of p42 and p44 MAP kinases [1]: low nanomolar concentrations
- reactivity of other receptors [3]: totally unreactive
- concentration of maximal chemotactic activity ([2]; immature dendritic cells): 1 nM
- in vitro migration ([2]; macrophages and immature dendritic cells): promoted in vitro migration
- chemotaxis ([2]; mature dendritic cells): no chemotaxis
- activity on wild-type CHO-K1 cells [4]: No activity
- intracellular Ca2+ levels [5]: increased

B1: prochemerin: unprocessed form of the protein retaining the six C-terminal aminoacids (143 amino acids) (protein, listed as Homo sapiens)
chain: ELTEAQRRGLQVALEEFHKHPPVQWAFQETSVESAVDTPFPAGIFVRLEFKLQQTSCRKRDWKKPECKVRPNGRKRKCLACIKLGSEDKVLGRLVHCPIETQVLREAEEHQETQCLRVQRAGEDPHSFYFPGQFAFSKALPRS
- activity on wild-type CHO-K1 cells [4]: No activity
- EC50 ([6]; CHO cells expressing ChemerinR, aequorin assay, read-out: EC50 for activation of ChemerinR): 393 ± 116 nM
- EC50 ([6]; truncated Chemerin peptides, values in nM, read-out: Mean EC50): 393 ± 116 nM
- conversion into a form active on ChemerinR [7]: fully converted

B2: mouse Chemerin: mouse Chemerin expressed by B16F0 melanoma cells transfected with a bicistronic expression vector containing the mouse Chemerin cDNA (protein)
chain: EPELSETQRRSLQVALEEFHKHPPVQLAFQEIGVDRAEEVLFSAGTFVRLEFKLQQTNCPKKDWKKPECTIKPNGRRRKCLACIKMDPKGKILGRIVHCPILKQGPQDPQELQCIKIAQAGEDPHGYFLPGQFAFSRALRTK
- growth rate of the cell lines [8]: did not modify the growth rate
- average reduction of size of developing tumors ([9]; 21-24 days after the graft of Chemerin-expressing cells vs control): 70%
- mice that did not develop tumors ([9]; three series combined, up to four weeks after graft, 0/24 in control group, p<0.05): 5 out of 24
